Experimental data as given in PMC10247784, “Physiological activation of human and mouse bitter taste receptors by bile acids” (Communications Biology, 2023).

Target: T1, mouse Tas2r108 (Mus musculus, UniProt Q9JKT3)
T1 construct: expressed in transfected cells; host or cells: HEK293T-Gα16gust44
T1 sequence (Q9JKT3 1-297): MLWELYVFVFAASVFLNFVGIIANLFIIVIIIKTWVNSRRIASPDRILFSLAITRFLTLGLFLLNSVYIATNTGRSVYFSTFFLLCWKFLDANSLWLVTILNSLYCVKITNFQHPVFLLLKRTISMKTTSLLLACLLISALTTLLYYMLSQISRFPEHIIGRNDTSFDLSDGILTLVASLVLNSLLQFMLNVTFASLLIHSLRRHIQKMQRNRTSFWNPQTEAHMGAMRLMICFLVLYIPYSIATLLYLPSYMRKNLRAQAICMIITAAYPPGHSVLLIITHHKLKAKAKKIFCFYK
Experiment: Calcium imaging assay (FLIPR), HEK293T-Gα16gust44 cells transfected with mouse Tas2r108
Assay type: cell-based
Settings: for Δ F/F: Tas2r108
Experimental: This set of bile acids was chosen because of their commercial availability in high purities, their diversity within the class of bile acids and their previous detection and quantitation in human blood. Stock solutions were prepared in DMSO.
As basal growth medium for the HEK293T-Gα16gust44 cell line[17],[59] served Dulbecco’s modified eagle medium (DMEM) (Thermo Fisher Scientific, Darmstadt, Germany) supplemented with 10 % fetal bovine serum (Sigma-Aldrich, Steinheim, Germany), 2 mM L-glutamine (Sigma-Aldrich, Steinheim, Germany), 100 units/ml penicillin (Sigma Aldrich, Steinheim, Germany) and 100 µg/ml streptomycin (Sigma Aldrich, Steinheim, Germany). Growth conditions were 37 °C, 5 % CO2 and saturated air-humidity[60].
HEK293T-Gα16gust44 cells were seeded on poly-D-lysine (10 µg/ml) coated 96-well plates to reach a confluence of 40-60 % the next day. For transient transfection 150 ng of plasmid DNA containing the receptor of interest and 0.3 µl lipofectamine 2000 (Thermo Fisher Scientific, Darmstadt, Germany) per well were used and transfection took place according to the manual of lipofectamine 2000. […] The empty vector DNA (mock) was transfected as negative control[14],[41].
Cells were loaded using the calcium-sensitive fluorescent dye Fluo-4-AM (Abcam, Cambridge, Great Britain) in the presence of 2.5 mM probenecid (Sigma-Aldrich, Steinheim, Germany) the day after transfection[13],[41]. 1 h after loading, cells were washed with C1 buffer using a BioTek Cell Washer, incubated in the dark for half an hour and washed again. For automated agonist application and measurement of fluorescence changes, a FLIPR^TETRA device (Molecular Devices, San José, United States) was used. Viability of cells was tested by application of 100 nM Somatostatin 14 (Bachem, Bubendorf, Switzerland)[42].
Measured data were negative control corrected by subtracting the signal of the mock-transfected cells and exported to Microsoft Excel using the FLIPR software ScreenWorks 4.2. In Microsoft Excel software, standardization of maximum fluorescence intensities to the basal fluorescence and normalization to the buffer-only control was done to calculate the relative fluorescence changes (ΔF/F).
Initial screening experiments performed in duplicate wells were confirmed by at least one replication and representative traces were selected for display. All dose-response relationships were determined by three independent experiments (biological replicates) performed in duplicates (technical replicates). Threshold concentrations, defined as lowest substance concentrations leading to statistically significant elevated fluorescence changes in receptor-transfected cells compared with empty vector-transfected cells, were determined using SigmaPlot with Student’s t-test to evaluate statistical significance (p < 0.01).

## C[C@H](CCC(=O)NCCS(=O)(=O)O)[C@H]1CC[C@H]2[C@@H]3[C@H](O)C[C@@H]4C[C@H](O)CC[C@]4(C)[C@H]3C[C@H](O)[C@]12C [Taurocholic Acid, taurocholic acid]
conc. 0,01 mM
  Δ F/F: 0.0164
conc. 0,1 mM
  Δ F/F: 0.02829
conc. 0,03 mM
  Δ F/F: 0.01249
conc. 0,3 mM
  Δ F/F: 0.06351
conc. 0,001 mM
  Δ F/F: 0.009911
conc. 1 mM
  Δ F/F: 0.1676
conc. 0,003 mM
  Δ F/F: 0.0148
Time 0 s
  RLU: 0 RLU
Time 2 s
  RLU: -20.2593 RLU
Time 4 s
  RLU: -40.462 RLU
Time 6 s
  RLU: -30.0161 RLU
Time 8 s
  RLU: -12.374 RLU
Time 12 s
  RLU: -13.3496 RLU
Time 14 s
  RLU: -6.544 RLU
Time 16 s
  RLU: -15.3343 RLU
Time 18 s
  RLU: -11.3649 RLU
Time 18.781 s
  RLU: 0.4416 RLU
Time 20.781 s
  RLU: -36.0442 RLU
Time 22.781 s
  RLU: -43.651 RLU
Time 24.781 s
  RLU: -41.1365 RLU
Time 26.781 s
  RLU: -18.6 RLU
Time 28.781 s
  RLU: 11.2728 RLU
Time 30.781 s
  RLU: 33.5132 RLU
Time 32.781 s
  RLU: 71 RLU
Time 34.781 s
  RLU: 95.3158 RLU
Time 36.781 s
  RLU: 97.2719 RLU
Time 38.781 s
  RLU: 144.173 RLU
Time 40.781 s
  RLU: 134.881 RLU
Time 42.781 s
  RLU: 146.815 RLU
Time 44.781 s
  RLU: 188.478 RLU
Time 46.781 s
  RLU: 187.465 RLU
Time 48.781 s
  RLU: 214.327 RLU
Time 50.781 s
  RLU: 211.162 RLU
Time 52.781 s
  RLU: 236.861 RLU
Time 54.781 s
  RLU: 237.067 RLU
Time 56.781 s
  RLU: 230.295 RLU
Time 58.781 s
  RLU: 253.142 RLU
Time 60.781 s
  RLU: 220.824 RLU
Time 62.781 s
  RLU: 245.001 RLU
Time 64.781 s
  RLU: 248.53 RLU
Time 66.781 s
  RLU: 284.462 RLU
Time 68.781 s
  RLU: 254.576 RLU
Time 70.781 s
  RLU: 279.831 RLU
Time 72.781 s
  RLU: 269.677 RLU
Time 74.781 s
  RLU: 263.013 RLU
Time 76.781 s
  RLU: 268.161 RLU
Time 78.781 s
  RLU: 271.517 RLU
Time 80.781 s
  RLU: 261.286 RLU
Time 82.781 s
  RLU: 284.591 RLU
Time 84.781 s
  RLU: 263.187 RLU
Time 86.781 s
  RLU: 264.054 RLU
Time 88.781 s
  RLU: 257.931 RLU
Time 90.781 s
  RLU: 266.719 RLU
Time 92.781 s
  RLU: 280.373 RLU
Time 94.781 s
  RLU: 260.776 RLU
Time 96.781 s
  RLU: 264.943 RLU
Time 98.781 s
  RLU: 262.119 RLU
Time 100.781 s
  RLU: 242.991 RLU
Time 102.781 s
  RLU: 248.884 RLU
Time 104.781 s
  RLU: 234.786 RLU
Time 106.781 s
  RLU: 246.521 RLU
Time 108.781 s
  RLU: 245.379 RLU
Time 110.781 s
  RLU: 221.773 RLU
Time 112.781 s
  RLU: 255.593 RLU
Time 114.781 s
  RLU: 236.786 RLU
Time 116.781 s
  RLU: 246.038 RLU
Time 118.781 s
  RLU: 236.543 RLU
Time 120.781 s
  RLU: 242.472 RLU
Time 122.781 s
  RLU: 225.877 RLU
Time 124.781 s
  RLU: 231.718 RLU
Time 126.781 s
  RLU: 218.383 RLU
Time 128.781 s
  RLU: 219.672 RLU
Time 130.781 s
  RLU: 215.513 RLU
Time 132.781 s
  RLU: 219.132 RLU
Time 134.781 s
  RLU: 219.383 RLU
Time 136.781 s
  RLU: 199.62 RLU
Time 137.562 s
  RLU: 222.887 RLU
Time 143.562 s
  RLU: 216.156 RLU
Time 149.562 s
  RLU: 209.286 RLU
Time 155.562 s
  RLU: 217.366 RLU
Time 161.562 s
  RLU: 220.781 RLU
Time 167.562 s
  RLU: 219.02 RLU
Time 173.562 s
  RLU: 233.427 RLU
Time 179.562 s
  RLU: 239.06 RLU
Time 185.562 s
  RLU: 225.962 RLU
Time 191.562 s
  RLU: 229.727 RLU
Time 197.562 s
  RLU: 239.899 RLU
Time 203.562 s
  RLU: 214.938 RLU
Time 209.562 s
  RLU: 251.411 RLU
Time 215.562 s
  RLU: 226.847 RLU
Time 221.562 s
  RLU: 216.644 RLU
Time 227.562 s
  RLU: 259.359 RLU
Time 233.562 s
  RLU: 219.243 RLU
Time 239.562 s
  RLU: 236.142 RLU
Time 245.562 s
  RLU: 237.626 RLU
Time 293.562 s
  RLU: 221.03 RLU
Time 299.562 s
  RLU: 234.317 RLU
Time 305.562 s
  RLU: 241.837 RLU
Time 311.562 s
  RLU: 254.495 RLU
Time 317.562 s
  RLU: 265.787 RLU
Time 323.562 s
  RLU: 251.038 RLU
Time 329.562 s
  RLU: 233.221 RLU
Time 335.562 s
  RLU: 247.117 RLU
Time 341.562 s
  RLU: 273.956 RLU
Time 347.562 s
  RLU: 268.956 RLU
Time 353.562 s
  RLU: 264.083 RLU
Time 359.562 s
  RLU: 275.281 RLU
P < 0.01 vs empty vector
  Activation threshold concentration Tas2r108: 100 µM
